Data: patent US6346514B1, “Pharmaceutical lysine-containing polypeptide compositions and methods of use thereof” (priority 1991, dated 2002)

System: Vibrio anguillarum (V-775)
Test: Vaccine augmentation in Rainbow trout challenged with Vibrio anguillarum
Format: in vivo, Rainbow trout (Oncorhynchus mykiss)
Procedure: In the present investigation, fish were obtained and inoculated at approximately 12 weeks of age. Immunologic studies were conducted under a variety of conditions in which fish were provided with vaccination to observe vaccine augmentation, and under conditions in which no vaccine was provided prior to inoculum. The effects of exposure time, HM897 concentration, and vaccine on mortalities relative to control studies in which no HM897 was administered provided data for analysis of the immunologic effect of HM897.
The study was conducted using Rainbow trout (Oncorhynchus mykiss) to compare the effects of a standard fish vaccine to the protection provided by varying dosages of HM897. The fish were challenged with Vibrio anguillarum (V-775), a bacteria that causes fatal vibriosis, typically 3-5 days following pathogen exposure.
Rainbow Trout (Oncorhynchus mykiss) weighing approximately 5 grams were used as test organisms. The fish were obtained from Cran-Mar Trout Farm. Upon arrival at BRL's facility, the fish were quarantined for a minimum of seven days, and observed to be disease free. During this period, the fish were held at a stable temperature. There was consistent water quality in an aerated flow-through system with a flow rate of approximately 30 liters per hour. During the holding period the fish were observed daily for signs of disease, stress, injury, hemorrhaging, and external parasite. The fish were not fed 48 hours prior to testing.
The Rainbow trout used in this study weighed an average of 5 grams. The fish were divided into 21 groups with 50 fish per group. Each group of 50 fish was maintained in two 10-gallon tanks (25 fish/tank).
The level of bacterial dilution to achieve a LD75 (the level designed to kill 75% of the non-vaccinated fish) was a dilution of 10^−4. to 10^−5. The challenge bacteria were grown for 48 hours at 25° C in trypticase soy broth. The 10^−4 dilution was made from this broth in 0.9% saline. All fish excepting the control group that received no bacterial challenge were inoculated 7 days after exposure to HM897.
Rainbow trout hatchling were exposed to the concentration of HM897 as described below. Some of the fish had been vaccinated while others had received no vaccination. In each tank, fifty vaccinated or unvaccinated fish were exposed for a period of 5 minutes to HM897, and then removed and placed in an assigned tank according to the group number.
The positive control group (III) received a vaccine made from Vibrio anguillarum (V-775). This was made through a fermentation and extraction process in the BRL laboratory facility and is equivalent to the aquaculture industry standard vibrio vaccine.
All groups scheduled to be challenged with the Vibrio anguillarum bacterium were challenged at the LD75 dilution on day seven of the experiment by i.p. injection of 0.1 mL of 10^−4 bacterial dilution. The fish were observed daily for mortalities.

Measured: Cumulative Mortalities

Thr-Ala-Glu-Glu-Lys (TAEEK) [HM897]
6: Day 15, Group IVb: vaccinated, HM897 10 μg/38 liters | Day 16, Group IVb: vaccinated, HM897 10 μg/38 liters
16: Day 13, Group Va: not vaccinated, HM897 10 μg/38 liters | Day 15, Group IVd: vaccinated, HM897 100 μg/38 liters
13: Day 16, Group IVa: vaccinated, HM897 2.5 μg/38 liters | Day 17, Group IVa: vaccinated, HM897 2.5 μg/38 liters
17: Day 16, Group IVd: vaccinated, HM897 100 μg/38 liters
21: Day 13, Group Vc: not vaccinated, HM897 75 μg/38 liters
15: Day 14, Group IVd: vaccinated, HM897 100 μg/38 liters
1: Day 11, Group Vc: not vaccinated, HM897 75 μg/38 liters | Day 12, Group Vc: not vaccinated, HM897 75 μg/38 liters | Day 13, Group IVa: vaccinated, HM897 2.5 μg/38 liters | Day 13, Group IVb: vaccinated, HM897 10 μg/38 liters | Day 13, Group IVc: vaccinated, HM897 50 μg/38 liters
24: Day 14, Group Va: not vaccinated, HM897 10 μg/38 liters
5: Day 14, Group IVb: vaccinated, HM897 10 μg/38 liters | Day 14, Group IVc: vaccinated, HM897 50 μg/38 liters
0: Day 1, Group IVa: vaccinated, HM897 2.5 μg/38 liters | Day 1, Group IVb: vaccinated, HM897 10 μg/38 liters | Day 1, Group IVc: vaccinated, HM897 50 μg/38 liters | Day 1, Group IVd: vaccinated, HM897 100 μg/38 liters | Day 1, Group Va: not vaccinated, HM897 10 μg/38 liters | Day 1, Group Vb: not vaccinated, HM897 25 μg/38 liters | Day 1, Group Vc: not vaccinated, HM897 75 μg/38 liters | Day 1, Group Vd: not vaccinated, HM897 150 μg/38 liters | Day 2.10, Group IVa: vaccinated, HM897 2.5 μg/38 liters | Day 2.10, Group IVb: vaccinated, HM897 10 μg/38 liters | Day 2.10, Group IVc: vaccinated, HM897 50 μg/38 liters | Day 2.10, Group IVd: vaccinated, HM897 100 μg/38 liters | Day 2.10, Group Va: not vaccinated, HM897 10 μg/38 liters | Day 2.10, Group Vb: not vaccinated, HM897 25 μg/38 liters | Day 2.10, Group Vc: not vaccinated, HM897 75 μg/38 liters | Day 2.10, Group Vd: not vaccinated, HM897 150 μg/38 liters | Day 11, Group IVa: vaccinated, HM897 2.5 μg/38 liters | Day 11, Group IVb: vaccinated, HM897 10 μg/38 liters | Day 11, Group IVc: vaccinated, HM897 50 μg/38 liters | Day 11, Group IVd: vaccinated, HM897 100 μg/38 liters | Day 11, Group Va: not vaccinated, HM897 10 μg/38 liters | Day 11, Group Vb: not vaccinated, HM897 25 μg/38 liters | Day 11, Group Vd: not vaccinated, HM897 150 μg/38 liters | Day 12, Group IVa: vaccinated, HM897 2.5 μg/38 liters | Day 12, Group IVb: vaccinated, HM897 10 μg/38 liters | Day 12, Group IVc: vaccinated, HM897 50 μg/38 liters | Day 12, Group IVd: vaccinated, HM897 100 μg/38 liters | Day 12, Group Va: not vaccinated, HM897 10 μg/38 liters | Day 12, Group Vb: not vaccinated, HM897 25 μg/38 liters | Day 12, Group Vd: not vaccinated, HM897 150 μg/38 liters
28: Day 15, Group Va: not vaccinated, HM897 10 μg/38 liters
14: Day 13, Group Vd: not vaccinated, HM897 150 μg/38 liters
29: Day 14, Group Vc: not vaccinated, HM897 75 μg/38 liters
8: Day 13, Group IVd: vaccinated, HM897 100 μg/38 liters
7: Day 14, Group IVa: vaccinated, HM897 2.5 μg/38 liters | Day 17, Group IVb: vaccinated, HM897 10 μg/38 liters
33: Day 16, Group Va: not vaccinated, HM897 10 μg/38 liters | Day 16, Group Vb: not vaccinated, HM897 25 μg/38 liters | Day 16, Group Vc: not vaccinated, HM897 75 μg/38 liters
10: Day 15, Group IVa: vaccinated, HM897 2.5 μg/38 liters | Day 15, Group IVc: vaccinated, HM897 50 μg/38 liters | Day 16, Group IVc: vaccinated, HM897 50 μg/38 liters | Day 17, Group IVc: vaccinated, HM897 50 μg/38 liters
25: Day 14, Group Vb: not vaccinated, HM897 25 μg/38 liters
18: Day 13, Group Vb: not vaccinated, HM897 25 μg/38 liters
32: Day 15, Group Vb: not vaccinated, HM897 25 μg/38 liters | Day 15, Group Vc: not vaccinated, HM897 75 μg/38 liters
